Consider one molecule from patent US20070073056A1, “4-Substituted Pyrazoline Compounds, their Preparation and Use as Medicaments” (LABORATORIOS DEL DR. ESTEVE, S.A., priority 2005, published 2007).

The term IC50 denotes the concentration needed to halve the response being measured.

Test [1] deals with CB1-receptor (UniProt P20272). Description: binding of the pyrazoline compounds to CB1-receptors (Pharmacological Methods, Part I). More on the design: IC50; species or system human or rat. The note with it: radioligand [3H]-CP55940, read-out: IC50. Put shortly: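 Rat cerebellum membranes (male Wistar), 100 μg protein, competed against 1 nM [3H]-CP 55,940 in 50 mM Tris-HCl, 5 mM MgCl2, 1 mM EDTA, 0.5% BSA, pH 7.4; 1 h at 30 °C. Non-specific binding with 10 μM HU-210; filtration and scintillation counting, triplicates, non-linear regression.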

In test [2] the target is recombinant human cannabinoid 1 receptor (CB1) (Homo sapiens, UniProt P21554). Kind of test: [35S]GTPγS binding assay, antagonism to CB1-receptor (Pharmacological methods, part V). Format: biochemical. The note with it: compound at 1 μM against agonist WIN 55,212-2; 100% = effect of Rimonabant (1 μM); CHO membranes. On the procedure: V. In vitro Determination of Antagonism to CB1-Receptor
Sequence of recombinant human cannabinoid 1 receptor (CB1) (P21554 whole entry): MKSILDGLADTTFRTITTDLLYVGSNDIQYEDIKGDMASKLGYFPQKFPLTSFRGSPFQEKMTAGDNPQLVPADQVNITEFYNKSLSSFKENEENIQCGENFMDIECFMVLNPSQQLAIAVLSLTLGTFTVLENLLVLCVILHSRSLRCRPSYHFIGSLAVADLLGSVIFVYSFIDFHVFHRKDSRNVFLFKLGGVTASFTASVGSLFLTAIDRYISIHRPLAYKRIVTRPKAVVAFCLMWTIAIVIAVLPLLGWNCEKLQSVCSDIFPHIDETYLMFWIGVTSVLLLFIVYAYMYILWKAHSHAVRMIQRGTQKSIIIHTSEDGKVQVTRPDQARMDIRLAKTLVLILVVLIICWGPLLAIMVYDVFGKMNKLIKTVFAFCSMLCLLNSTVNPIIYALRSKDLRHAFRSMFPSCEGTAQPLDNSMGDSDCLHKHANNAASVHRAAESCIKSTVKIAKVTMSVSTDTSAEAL
Chinese hamster ovary (CHO) cells stably expressing recombinant human cannabinoid 1 receptor (CB1) were cultured in nutrient mixture Ham's F 12 supplemented with 10% heat-inactivated fetal bovine serum, 2 mM L-glutamine, 50 U/ml penicillin, 50 U/ml streptomycin and 0.5 mg/ml geneticin. In order to obtain cells, culture flasks were washed twice with phosphate buffered saline and scraped. Then, cells were collected by centrifugation (200×g, 10 min) and stored dry at −80° C. Cells were homogenized in ice-cold 20 mM HE PES, 10 mM EDTA (pH 7.5) and centrifuged at 40,000×g for 15 min at 4° C. The pellet was resuspended in 20 mM HEPES, 0.1 mM EDTA (pH 7.5) and centrifuged for 15 min at 4° C. The final pellet was resuspended in 20 mM HEPES, 0.1 mM EDTA (pH 7.5), and divided in aliquots and stored at −80° C. until use.
[^35S]GTPγS Binding Assay:
The reaction was performed in 96-well plates. […] The incubation was terminated by rapid filtration through Millipore Multiscreen glass fiber FB, and rinsed two-times with ice-cold assay buffer. Filter plates were dried and 30 μl of scintillation liquid was added. Radioactivity was determined using Wallac Microbeta Trilux. Each experiment was performed at least in duplicate.
The average of basal [35S]GTPγS binding was subtracted from all binding data.
The antagonism of the pyrazoline compounds of general formula I to the CB1-receptor was determined according to the method described in Pharmacological methods, part V (table 2).
(Binding of GTPγS marks nucleotide exchange on a G protein.)

Regarding `C[C@@H]1C(C(=O)NN2CCCCC2)=NN(c2ccc(Cl)cc2Cl)[C@H]1c1ccccc1` (relative stereo) [Example 376, trans-1-(2,4-dichlorophenyl)-4-methyl-5-phenyl-N-(piperidin-1-yl)-4,5-dihydro-1H-pyrazole-3-carboxamide], in test [1], the IC50 is 70.8 nM. For the same molecule, in test [2], the Antagonism worked out at 75%.
